Our source for the IC50 values is patent US10899710B2, “Pyridines and their use in the treatment of cancer” (The United States of America, as represented by the …, priority 2015, dated 2021).

The target of experiment [1] is T1, recombinant thioredoxin reductase 1 (TrxR1) (Homo sapiens, UniProt Q16881).
T1 sequence (Q16881 151-649 limits assumed): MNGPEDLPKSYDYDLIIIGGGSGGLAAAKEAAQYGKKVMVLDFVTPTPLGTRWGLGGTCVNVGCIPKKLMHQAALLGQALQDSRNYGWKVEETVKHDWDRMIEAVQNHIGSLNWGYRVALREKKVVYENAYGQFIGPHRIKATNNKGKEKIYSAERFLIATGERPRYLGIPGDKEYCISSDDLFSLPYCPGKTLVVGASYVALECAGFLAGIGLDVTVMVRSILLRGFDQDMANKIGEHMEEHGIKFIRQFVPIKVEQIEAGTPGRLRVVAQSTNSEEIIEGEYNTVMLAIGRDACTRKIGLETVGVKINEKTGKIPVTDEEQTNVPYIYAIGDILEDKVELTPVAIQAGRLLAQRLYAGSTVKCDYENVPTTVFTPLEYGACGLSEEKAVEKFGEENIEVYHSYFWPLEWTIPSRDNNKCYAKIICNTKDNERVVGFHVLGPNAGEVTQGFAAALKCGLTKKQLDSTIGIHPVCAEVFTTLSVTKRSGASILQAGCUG
Kind of experiment: Inhibition of recombinant TrxR1 (DTNB assay). The conditions noted are these: read-out: TrxR inhibition (IC50). Format: biochemical. The protocol:
(§1) Small molecule inhibition of recombinant thioredoxin reductase 1 (TrxR1) and gluthathione reductase (GR) was examined in 96-well plate format. 15 nM TrxR1 was incubated in the presence of 250 μM NADPH, 0.1 mg/ml BSA, and various concentrations of the compound of Example 1 (1% DMSO final) in 50 mM Tris (pH 7.5) and 2 mM EDTA buffer for 15 minutes. Following the incubation period, 2.5 mM DTNB was added to each well and the change in O.D. at 412 nm was followed. Percent activity was determined using DMSO vehicle and no TrxR1 (blank) controls. 2 nM GR was incubated in the presence of 250 μM NADPH, 0.1 mg/ml BSA, and various concentrations of compounds (1% DMSO final) in 50 mM Tris (pH 7.5) and 2 mM EDTA buffer for 15 minutes. Following the incubation period, 1 mM GSSG was added to each well and the change in O.D. at 340 nm was followed. Percent activity was determined using DMSO vehicle and no GR (blank) controls.

Experiment [2] addresses T2, gluthathione reductase (GR) (Homo sapiens, UniProt P00390).
T2 sequence (P00390 44-522): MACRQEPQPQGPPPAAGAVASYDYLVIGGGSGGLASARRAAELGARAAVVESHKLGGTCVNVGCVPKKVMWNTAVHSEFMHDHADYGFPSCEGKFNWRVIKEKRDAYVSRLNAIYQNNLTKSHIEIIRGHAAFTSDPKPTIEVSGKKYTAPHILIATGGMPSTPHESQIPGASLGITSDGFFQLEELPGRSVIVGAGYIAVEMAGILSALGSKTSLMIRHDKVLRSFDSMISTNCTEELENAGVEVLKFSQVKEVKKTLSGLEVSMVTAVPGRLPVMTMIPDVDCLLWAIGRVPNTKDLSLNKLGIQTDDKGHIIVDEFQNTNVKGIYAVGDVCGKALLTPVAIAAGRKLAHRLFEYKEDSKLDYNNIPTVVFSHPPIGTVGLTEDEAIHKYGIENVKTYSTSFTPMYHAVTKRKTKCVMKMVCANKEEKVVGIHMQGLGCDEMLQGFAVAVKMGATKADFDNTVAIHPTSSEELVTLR
The experiment in a line: Inhibition of recombinant GR (GSSG assay). Type of experiment: biochemical. The protocol: as §1

In experiment [3] the test system is FaDu cell line. Kind of experiment: Cell viability inhibition, FaDu cell line. Type of experiment: cell-based. The note with it: Homo sapiens, Biological Example 4, 72 hrs. The protocol: Cell lines were plated 2000 cells/well in 96-well black optical plates in the presence of 10% FBS media containing 25 nM selenite. The following day cells were treated with various concentrations of the compound of Example 1 (0.1% DMSO final) and incubated for 72 hrs. After the incubation Cell-Quanti Blue reagent was added to each well and incubated for additional 3 hrs. Fluorescence was read ex:530 nm/em:590 nm, and percent of viability was determined using DMSO vehicle and no cell (blank) controls.
Using the assays described in Biological Example 1 to assess inhibition of recombinant TrxR1 and GR, the following IC50 values were obtained for the examples described herein. Further, following the protocol described in Biological Example 2, the following IC50 values were obtained for inhibition of cell viability using the FaDu cell line.

The mark [4] stands for this setting: Biological Example 1, 15 nM TrxR1, 15 minutes incubation.
The mark [5] stands for this setting: Biological Example 1, 2 nM GR, 15 minutes incubation.

Structures are written as SMILES. pIC50: −log10 of the molar value. Structures can show the parent of a compound that is named as a salt. Where two headings read alike, the source gives them in different places. Some results are limits rather than exact numbers.

Regarding `O=[N+]([O-])c1cccnc1S(=O)(=O)c1ccc(Cl)cc1` [Example 5, 2-((4-Chlorophenyl)sulphonyl)-3-nitropyridine Trifluoroacetate], the pIC50 was 7.01 in experiment [1] (setting [4]); 6.82 in experiment [1] (Biological Example 4); 4.32 in experiment [2] (setting [5]); 4.03 in experiment [2] (Biological Example 4); 5.74 in experiment [3].
As for `CN(C)c1ccc([N+](=O)[O-])c(S(=O)(=O)c2ccccc2)n1` [Example 14, N,N-dimethyl-5-nitro-6-(phenylsulfonyl)pyridin-2-amine], the results for the negative-log IC50 (pIC50) in experiment [1] (Biological Example 4), in experiment [2] (Biological Example 4) and in experiment [3] were 6.46, < 4.00 and 5.27, respectively.
Regarding `COc1ccc(S(=O)(=O)c2nc(OC)ccc2[N+](=O)[O-])cc1` [Example 7, 6-Methoxy-2-((4-methoxyphenyl)sulfonyl)-3-nitropyridine], the pIC50 in experiment [1] (Biological Example 4) was 6.64; in experiment [2] (Biological Example 4) it was < 4.00; in experiment [3], 5.56.
For `COc1ccc(S(=O)(=O)c2nc(N(C)C)ccc2[N+](=O)[O-])cc1` [Example 12, 6-((4-Methoxyphenyl)sulfonyl)-N,N-dimethyl-5-nitropyridin-2-amine] the same measures were 6.29, < 4.00 and 5.10.
For `O=[N+]([O-])c1ccc(Cl)nc1S(=O)(=O)c1ccc(Cl)cc1` [Example 8, 6-Chloro-2-((4-chlorophenyl)sulfonyl)-3-nitropyridine] the same measures were 7.80, 5.45 and 6.08.
`Cc1ccc(S(=O)(=O)c2ncccc2[N+](=O)[O-])cc1` [Example 3, 3-Nitro-2-tosylpyridine Hydrochloride]: the pIC50 in experiment [1] (setting [4]) was 6.55; in experiment [1] (Biological Example 4) it was 6.66; in experiment [2] (setting [5]), < 4.00; in experiment [2] (Biological Example 4), < 4.00; in experiment [3], 5.59.
For the molecule `O=[N+]([O-])c1ccc(Cl)nc1S(=O)(=O)c1ccccc1` [Example 10, 6-Chloro-3-nitro-2-(phenylsulfonyl)pyridine], the negative-log IC50 (pIC50) in experiment [1] (Biological Example 4) is 7.25; in experiment [2] (Biological Example 4), 4.84; in experiment [3] it was 6.60.
For `COc1ccc([N+](=O)[O-])c(S(=O)(=O)c2ccc(C)cc2)n1` [Example 6, 6-Methoxy-3-nitro-2-tosylpyridine], the pIC50 is 6.99 in experiment [1] (Biological Example 4), < 4.00 in experiment [2] (Biological Example 4) and 5.86 in experiment [3].
For `Cc1ccc(S(=O)(=O)c2nc(N(C)C)ccc2[N+](=O)[O-])cc1` [Example 15, N,N-dimethyl-5-nitro-6-tosylpyridin-2-amine] the same measures were 6.36, < 4.00 and 5.23.
For `O=[N+]([O-])c1cccnc1S(=O)(=O)c1ccccc1` [Example 2, 3-Nitro-2-(phenylsulphonyl)pyridine Trifluoroacetate], the pIC50 is 6.81 in experiment [1] (setting [4]); 6.54 in experiment [1] (Biological Example 4); < 4.00 in experiment [2] (setting [5]); < 4.00 in experiment [2] (Biological Example 4); 5.85 in experiment [3].
As for `COc1ccc([N+](=O)[O-])c(S(=O)(=O)c2ccccc2)n1` [Example 4, 6-Methoxy-3-nitro-2-(phenylsulphonyl)pyridine Trifluoroacetate], the negative logarithm of the IC50 (pIC50) in experiment [1] (setting [4]) is 7.62; in experiment [1] (Biological Example 4) it was 7.62; in experiment [2] (setting [5]), 4.60; in experiment [2] (Biological Example 4), 4.51; in experiment [3] it was 5.49.
As for `Cc1ccc(S(=O)(=O)c2nc(Cl)ccc2[N+](=O)[O-])cc1` [Example 11, 6-Chloro-3-nitro-2-tosylpyridine], the pIC50 is 7.40 in experiment [1] (Biological Example 4), 4.63 in experiment [2] (Biological Example 4) and 6.41 in experiment [3].
For `CN(C)c1ccc([N+](=O)[O-])c(S(=O)(=O)c2ccc(Cl)cc2)n1` [Example 13, 6-((4-Chlorophenyl)sulfonyl)-N,N-dimethyl-5-nitropyridin-2-amine] the same measures were 6.75, < 4.00 and 4.89.
Turning to `COc1ccc(S(=O)(=O)c2nc(Cl)ccc2[N+](=O)[O-])cc1` [Example 9, 6-Chloro-2-((4-methoxyphenyl)sulfonyl)-3-nitropyridine], the pIC50 is 7.15 in experiment [1] (Biological Example 4), 4.38 in experiment [2] (Biological Example 4) and 6.29 in experiment [3].

The pIC50 is the IC50 on a negative log10 scale, so that one unit is a factor of ten.
